ChEMBL document CHEMBL1201862, “PubChem BioAssay data set” (2004)
Active and inactive are the calls of the source.

Tests used:
Cytochrome P450 2C9 = Cytochrome P450 2C9 (Homo sapiens, UniProt P11712)
Cytochrome P450 1A2 = target: T1, Cytochrome P450 1A2 (Homo sapiens, UniProt P05177);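 note: PubChem cytochrome P450 panel assay, CYP1A2 panel member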
T1 sequence (P05177 whole entry): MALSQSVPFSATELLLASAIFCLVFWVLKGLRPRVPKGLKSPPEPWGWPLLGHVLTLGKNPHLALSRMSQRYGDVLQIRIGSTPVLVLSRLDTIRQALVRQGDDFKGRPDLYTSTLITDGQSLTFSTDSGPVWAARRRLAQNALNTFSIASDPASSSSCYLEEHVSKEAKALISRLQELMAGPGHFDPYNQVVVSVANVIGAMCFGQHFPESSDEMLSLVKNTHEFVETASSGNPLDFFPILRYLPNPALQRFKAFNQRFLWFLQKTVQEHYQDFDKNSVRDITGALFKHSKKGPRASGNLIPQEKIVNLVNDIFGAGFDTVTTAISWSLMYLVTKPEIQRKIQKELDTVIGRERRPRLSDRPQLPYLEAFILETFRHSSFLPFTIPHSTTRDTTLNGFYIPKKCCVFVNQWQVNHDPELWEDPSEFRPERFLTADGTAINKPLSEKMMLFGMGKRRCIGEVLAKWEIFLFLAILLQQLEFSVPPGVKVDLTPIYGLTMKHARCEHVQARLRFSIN

Cytochrome P450 3A4 = Cytochrome P450 3A4 (Homo sapiens, UniProt P08684);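 note: CYP3A4 tested as one member of a cytochrome P450 panel screen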
Sequence of Cytochrome P450 3A4 (P08684 whole entry): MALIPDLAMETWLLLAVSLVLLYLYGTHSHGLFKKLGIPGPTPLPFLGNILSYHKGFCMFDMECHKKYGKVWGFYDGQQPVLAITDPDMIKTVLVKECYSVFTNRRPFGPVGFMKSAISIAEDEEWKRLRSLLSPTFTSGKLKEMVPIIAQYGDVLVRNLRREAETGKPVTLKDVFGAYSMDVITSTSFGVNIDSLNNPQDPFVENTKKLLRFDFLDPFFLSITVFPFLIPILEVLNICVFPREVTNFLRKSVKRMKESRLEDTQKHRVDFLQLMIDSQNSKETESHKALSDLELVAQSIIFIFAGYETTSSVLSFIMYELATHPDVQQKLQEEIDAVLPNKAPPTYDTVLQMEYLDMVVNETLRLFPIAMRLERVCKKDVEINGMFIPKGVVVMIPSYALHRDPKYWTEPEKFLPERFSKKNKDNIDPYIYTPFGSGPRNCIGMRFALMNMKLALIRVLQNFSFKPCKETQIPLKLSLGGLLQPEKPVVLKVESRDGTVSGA

[1] = target: T2, Long-chain-fatty-acid--AMP ligase FadD28 (Mycobacterium tuberculosis, UniProt P9WQ59); assay: Fluorescence polarization aasay to screen for inhibitors that compete for the binding of FadD28 to a bisubstrate Measured in Biochemical System Using Plate Reader - 2147-01_Inhibitor_Dose_CherryPick_Activity.; assay type: functional, Mycobacterium tuberculosis H37Rv
T2 sequence (P9WQ59 whole entry): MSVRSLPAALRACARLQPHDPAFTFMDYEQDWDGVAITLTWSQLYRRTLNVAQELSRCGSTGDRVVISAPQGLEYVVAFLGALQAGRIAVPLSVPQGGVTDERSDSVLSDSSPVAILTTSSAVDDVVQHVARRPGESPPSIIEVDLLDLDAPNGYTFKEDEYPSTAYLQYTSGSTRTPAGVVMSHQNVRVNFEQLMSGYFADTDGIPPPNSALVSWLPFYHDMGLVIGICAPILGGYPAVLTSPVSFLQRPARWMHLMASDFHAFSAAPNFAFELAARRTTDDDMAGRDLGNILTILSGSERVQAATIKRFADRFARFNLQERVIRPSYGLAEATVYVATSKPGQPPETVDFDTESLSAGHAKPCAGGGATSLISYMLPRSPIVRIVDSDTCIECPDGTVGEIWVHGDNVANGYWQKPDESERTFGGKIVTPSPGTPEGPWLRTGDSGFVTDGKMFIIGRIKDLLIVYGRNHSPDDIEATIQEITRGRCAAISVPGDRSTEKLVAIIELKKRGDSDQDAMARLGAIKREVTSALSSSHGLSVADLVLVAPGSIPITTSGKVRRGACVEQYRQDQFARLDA

Cytochrome P450 2C19 = Cytochrome P450 2C19 (Homo sapiens, UniProt P33261); assay: Cytochrome panel assay with activity outcomes. Panel member name: p450-cyp2c19 Compounds with AC50 equal or less than 10 uM are considered active; assay type: functional; details: read-out: AC50
Sequence of Cytochrome P450 2C19 (P33261 whole entry): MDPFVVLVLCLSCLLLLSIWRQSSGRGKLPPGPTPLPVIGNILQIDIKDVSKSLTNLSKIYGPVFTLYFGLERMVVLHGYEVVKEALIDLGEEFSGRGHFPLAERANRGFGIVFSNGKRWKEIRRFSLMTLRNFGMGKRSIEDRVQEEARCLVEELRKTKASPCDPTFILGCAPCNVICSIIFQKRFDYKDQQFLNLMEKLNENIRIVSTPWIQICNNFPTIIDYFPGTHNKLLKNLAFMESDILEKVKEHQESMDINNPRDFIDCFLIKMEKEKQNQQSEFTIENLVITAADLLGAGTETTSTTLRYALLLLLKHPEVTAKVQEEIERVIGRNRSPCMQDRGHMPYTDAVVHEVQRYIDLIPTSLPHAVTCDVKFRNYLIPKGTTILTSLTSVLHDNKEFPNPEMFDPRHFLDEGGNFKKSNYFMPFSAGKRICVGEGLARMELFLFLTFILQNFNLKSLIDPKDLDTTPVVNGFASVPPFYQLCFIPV

Nonstructural protein 1 = Nonstructural protein 1 (Influenza A virus, UniProt Q194T2); assay type: functional, Influenza A virus (A/California/07/2009(H1N1))
Sequence of Nonstructural protein 1 (Q194T2 whole entry): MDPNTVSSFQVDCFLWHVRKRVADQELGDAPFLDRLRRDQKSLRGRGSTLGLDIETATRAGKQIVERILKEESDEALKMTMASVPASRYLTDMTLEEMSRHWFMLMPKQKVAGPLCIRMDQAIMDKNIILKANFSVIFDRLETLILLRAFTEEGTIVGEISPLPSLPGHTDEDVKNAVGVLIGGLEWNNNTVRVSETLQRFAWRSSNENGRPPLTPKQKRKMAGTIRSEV

INS1 = assay: INS-1E survival protection against cytokine death – cell-based, luminescence, retest, dose response (AID 449756); assay type: functional; details: Rattus norvegicus;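 note: cell death triggered by IL-1 beta plus TNF-alpha plus IFN-gamma mixture; protective hits raise ATP signal compared with cytokine alone wells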
[2] = target: T3, RNA-binding protein pos-1 (Caenorhabditis elegans, UniProt G5EF15); assay: disruptors of C. elegans POS-1 RNA interaction – biochemical, fluorescence polarization, dose response (AID 1964);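 note: purified POS-1 fused to maltose binding protein made in E. coli; potency of compounds blocking POS-1 binding to fluorescent RNA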
T3 sequence (G5EF15 whole entry): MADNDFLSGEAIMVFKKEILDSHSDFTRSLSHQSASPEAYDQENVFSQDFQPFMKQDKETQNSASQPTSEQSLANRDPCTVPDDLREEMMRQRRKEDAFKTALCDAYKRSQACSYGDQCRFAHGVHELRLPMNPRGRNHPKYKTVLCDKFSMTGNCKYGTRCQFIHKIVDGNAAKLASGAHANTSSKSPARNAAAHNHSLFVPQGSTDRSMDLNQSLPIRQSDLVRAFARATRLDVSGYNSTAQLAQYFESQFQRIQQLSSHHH

[3] = NIH3T3 cell viability loss – ATP luminescence, mouse fibroblasts, counter-screen, dose response (AID 2010); assay type: functional, cell-based;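 note: cells exposed to compound for about 90 hours before reading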
[4] = Trypanosoma cruzi growth suppression in host cells – NIH3T3 host cells, beta-gal luminescence, confirmation (AID 2044); assay type: functional, cell-based;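 note: intracellular parasites grown in NIH/3T3 mouse fibroblasts as host cells; luminescent beta-galactosidase reporter signal from transgenic T. cruzi replicating inside host cells; inhibitors lower the luminescence signal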
Estrogen receptor = target: T4, Estrogen receptor (Homo sapiens, UniProt P03372);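 note: potency for inhibiting coactivator peptide recruitment to the receptor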
T4 sequence (P03372 whole entry): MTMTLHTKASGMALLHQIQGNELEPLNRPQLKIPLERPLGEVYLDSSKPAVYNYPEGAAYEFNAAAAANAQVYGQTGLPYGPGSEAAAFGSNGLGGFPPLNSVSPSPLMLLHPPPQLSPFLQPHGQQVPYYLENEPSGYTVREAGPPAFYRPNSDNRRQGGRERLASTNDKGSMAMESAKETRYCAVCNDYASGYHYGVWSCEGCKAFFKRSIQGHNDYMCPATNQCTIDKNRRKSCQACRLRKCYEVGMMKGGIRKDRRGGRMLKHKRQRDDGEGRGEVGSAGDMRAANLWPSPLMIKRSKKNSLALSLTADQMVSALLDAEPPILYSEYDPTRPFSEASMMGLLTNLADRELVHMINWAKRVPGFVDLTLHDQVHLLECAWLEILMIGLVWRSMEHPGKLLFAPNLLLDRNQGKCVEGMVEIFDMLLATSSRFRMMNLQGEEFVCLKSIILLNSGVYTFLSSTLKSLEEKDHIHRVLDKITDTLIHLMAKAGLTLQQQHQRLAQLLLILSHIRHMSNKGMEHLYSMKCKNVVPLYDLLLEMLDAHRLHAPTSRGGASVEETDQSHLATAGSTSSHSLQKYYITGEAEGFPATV

[5] = target: T5, Zinc finger protein mex-5 (Caenorhabditis elegans, UniProt Q9XUB2); assay: potency of MEX-5 RNA-binding blockers – biochemical, C. elegans, fluorescence polarization, dose response (AID 1960)
T5 sequence (Q9XUB2 whole entry): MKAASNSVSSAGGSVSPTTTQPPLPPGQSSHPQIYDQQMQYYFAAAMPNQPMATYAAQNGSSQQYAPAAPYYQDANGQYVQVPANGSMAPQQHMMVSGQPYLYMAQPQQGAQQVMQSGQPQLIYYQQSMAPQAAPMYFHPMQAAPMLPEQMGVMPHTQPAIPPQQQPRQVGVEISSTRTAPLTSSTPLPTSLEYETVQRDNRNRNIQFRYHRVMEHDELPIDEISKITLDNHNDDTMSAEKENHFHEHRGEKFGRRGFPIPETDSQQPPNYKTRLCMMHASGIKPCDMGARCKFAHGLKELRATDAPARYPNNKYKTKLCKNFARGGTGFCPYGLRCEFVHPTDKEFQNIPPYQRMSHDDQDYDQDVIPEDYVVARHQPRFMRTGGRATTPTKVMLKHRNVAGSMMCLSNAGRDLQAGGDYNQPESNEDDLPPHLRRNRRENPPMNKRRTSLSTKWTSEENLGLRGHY

BJ [6] = assay: BJ-TERT-LT-ST fibroblast viability loss – cell-based, RAS-independent, luminescence, dose response (AID 1935); assay type: functional; details: Homo sapiens;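 note: BJ fibroblasts immortalized with TERT plus LT and ST oncogenes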
[7] = target: Induced myeloid leukemia cell differentiation protein Mcl-1 (Homo sapiens, UniProt Q07820); assay type: functional
Sequence of Induced myeloid leukemia cell differentiation protein Mcl-1 (Q07820 whole entry): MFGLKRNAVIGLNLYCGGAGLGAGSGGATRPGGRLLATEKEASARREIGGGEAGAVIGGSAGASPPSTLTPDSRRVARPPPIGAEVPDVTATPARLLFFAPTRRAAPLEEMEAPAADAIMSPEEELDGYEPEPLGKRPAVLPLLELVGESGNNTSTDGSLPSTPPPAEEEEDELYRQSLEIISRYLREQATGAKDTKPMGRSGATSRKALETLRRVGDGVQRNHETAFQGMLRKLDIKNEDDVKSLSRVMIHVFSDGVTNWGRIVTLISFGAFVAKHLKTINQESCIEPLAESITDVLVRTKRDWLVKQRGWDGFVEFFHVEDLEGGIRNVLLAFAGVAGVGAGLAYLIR

BJ [8] = assay: cells; assay type: functional, cell-based; details: Homo sapiens
[9] = HEK-293T viability loss after treatment – luminescence, T-cell screen hits, cytotoxicity control for TCR NF-kB inhibitor project, dose response (AID 489026); assay type: functional, cell-based;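 note: cells exposed to compound about 14 hours before the viability readout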
BJ [10] = assay: BJ-TERT fibroblast viability loss – cell-based, RAS-independent, luminescence, dose response (AID 1933); assay type: functional; details: Homo sapiens
[11] = DRD fibroblast viability loss – cell-based, non-viral oncogenic, luminescence, dose response (AID 1934); assay type: functional; details: Homo sapiens

Sequence of Cytochrome P450 2C9 (P11712 whole entry): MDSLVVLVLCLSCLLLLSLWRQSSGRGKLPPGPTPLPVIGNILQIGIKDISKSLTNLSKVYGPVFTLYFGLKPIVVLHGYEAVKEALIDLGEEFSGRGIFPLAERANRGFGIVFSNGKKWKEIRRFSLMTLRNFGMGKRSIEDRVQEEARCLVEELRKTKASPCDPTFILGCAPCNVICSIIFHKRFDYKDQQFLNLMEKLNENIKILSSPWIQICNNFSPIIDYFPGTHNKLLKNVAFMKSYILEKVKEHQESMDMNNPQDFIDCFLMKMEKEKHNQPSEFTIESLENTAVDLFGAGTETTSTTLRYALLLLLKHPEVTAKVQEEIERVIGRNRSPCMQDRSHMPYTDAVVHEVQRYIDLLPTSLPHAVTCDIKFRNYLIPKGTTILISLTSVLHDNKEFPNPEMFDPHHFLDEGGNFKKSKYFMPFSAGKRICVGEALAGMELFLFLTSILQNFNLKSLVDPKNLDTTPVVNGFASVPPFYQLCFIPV

Cc1cccc(C)c1NC(=O)CN1CCN(CCCC(c2ccc(F)cc2)c2ccc(F)cc2)CC1 [LIDOFLAZINE]
AC50 (Cytochrome P450 2C9): 15.8 µM (inconclusive) | AC50 (Cytochrome P450 1A2): 15.8 µM (inconclusive) | AC50 (Cytochrome P450 3A4): inconclusive

O=C(c1cccc(F)c1)N1CCC2(CC1)CCN(c1cccc(-c3ccccc3)c1)CC2
AC50 (Cytochrome P450 1A2): 20 µM (inconclusive) | AC50 (Cytochrome P450 3A4): inconclusive

Cc1ccc(CNC(=O)C(Cc2ccccc2)NS(=O)(=O)c2ccc(Br)s2)cc1 (centres undefined)
AC50 [1]: 6.7 µM (active)

Cc1ccc(C2C(/C=N/c3c(C)n(C)n(-c4ccccc4)c3=O)=C(c3ccccc3)Oc3ccccc32)cc1 (centres undefined)
AC50 (Cytochrome P450 2C9): 2.24 µM (inconclusive) | AC50 (Cytochrome P450 2C19): 3.16 µM (inconclusive) | IC50 (Nonstructural protein 1): > 100 µM (active) | AC50 (INS1): 6.97 µM (active)

O=C(NCCSCc1ccccc1)c1ccc(Cl)c(S(=O)(=O)N2CCOCC2)c1
AC50 [1]: > 100 µM (inactive)

N=c1c(C(=O)NCc2ccc(F)cc2)cc2c(=O)n3ccccc3nc2n1Cc1cccnc1
EC50 [2]: 31.2 µM (inconclusive) | EC50 [3]: > 60 µM (not active) | EC50 [4]: 1.22 µM (active) | IC50 (Estrogen receptor): 7.04 µM (active) | EC50 [5]: 46 µM (active)

CCOc1ccccc1/C=c1\sc2nc(-c3ccco3)nn2c1=O
IC50 (Estrogen receptor): > 50 µM (not active)

CCOC(=O)c1[nH]c2c(c1C)C(=O)CC(c1ccco1)C2 (centres undefined)
EC50 (BJ [6]): 0.354 µM (inconclusive) | IC50 [7]: 6.08 µM (active) | EC50 (BJ [8]): 0.594 µM (active) | IC50 [9]: > 80 µM (inactive) | EC50 (BJ [10]): 0.334 µM (active) | IC50 (Estrogen receptor): 30.3 µM (not active) | EC50 [11]: 0.328 µM (active)
